Reference: US8969565B2, “Imidazo[1,2-b]pyridazine-based compounds, compositions comprising them, and methods of their use” (Lexicon Pharmaceuticals, Inc., priority 2012, dated 2015)
pIC50: −log10 of the molar value.

What was measured:
AAK1 [1] = biological target: T1, AAK1 (Homo sapiens, UniProt Q2M2I8); experiment: P81 filter plate assay; format: biochemical; conditions: full-length human AAK1, Mu2 substrate
T1 construct: HA; expressed in transfected cells; host or cells: HEK293F

AAK1 [2] = biological target: T1, AAK1; experiment: HEK281 cell-based assay (phospho-mu2 Western blot in transfected HEK293F cells); conditions: 3 hours incubation, read-out: CBA IC50
Outline: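 HEK293F cells co-transfected with full-length human AAK1/HA and Flag/AP2M1 were treated next day with 5 compound concentrations (3-fold dilutions) in DMEM+0.5% FBS for 3 hours at 37° C. Lysates were Western blotted for phospho-mu2, with total mu2 detected by anti-Flag.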

T1 sequence (Q2M2I8 1-863 isoform Q2M2I8-2): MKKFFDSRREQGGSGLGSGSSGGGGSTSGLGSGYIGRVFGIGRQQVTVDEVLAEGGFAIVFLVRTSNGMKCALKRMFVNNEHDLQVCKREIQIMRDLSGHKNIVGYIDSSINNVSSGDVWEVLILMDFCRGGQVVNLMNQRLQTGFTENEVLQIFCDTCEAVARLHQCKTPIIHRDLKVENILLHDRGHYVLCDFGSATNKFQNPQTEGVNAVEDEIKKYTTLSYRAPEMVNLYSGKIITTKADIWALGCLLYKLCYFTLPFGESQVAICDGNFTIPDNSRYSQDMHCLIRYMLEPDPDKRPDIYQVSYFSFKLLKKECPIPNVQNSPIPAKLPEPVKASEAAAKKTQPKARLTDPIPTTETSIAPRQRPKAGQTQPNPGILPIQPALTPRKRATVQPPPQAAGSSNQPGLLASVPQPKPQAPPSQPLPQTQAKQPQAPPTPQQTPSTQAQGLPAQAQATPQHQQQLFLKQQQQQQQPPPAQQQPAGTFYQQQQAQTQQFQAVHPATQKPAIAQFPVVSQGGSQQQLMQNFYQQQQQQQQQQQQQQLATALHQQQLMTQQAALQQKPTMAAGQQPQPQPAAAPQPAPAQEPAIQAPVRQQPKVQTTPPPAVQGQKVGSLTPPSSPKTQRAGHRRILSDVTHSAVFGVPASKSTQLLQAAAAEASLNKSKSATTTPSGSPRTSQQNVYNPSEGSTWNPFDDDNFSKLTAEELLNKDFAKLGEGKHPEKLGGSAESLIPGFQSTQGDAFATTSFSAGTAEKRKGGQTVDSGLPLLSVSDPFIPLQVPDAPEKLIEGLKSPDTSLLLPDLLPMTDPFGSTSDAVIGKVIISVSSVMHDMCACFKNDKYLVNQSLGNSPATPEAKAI

SMILES	pIC50 (AAK1 [1])	pIC50 (AAK1 [2])
CC(C)(C)NC(=O)N1CCC[C@H]1CNc1ccc2ncc(-c3ccncc3)n2n1 [(S)-N-(tert-butyl)-2-(((3-(pyridin-4-yl)imidazo[1,2-b]pyridazin-6-yl)amino)methyl)pyrrolidine-1-carboxamide]	≥ 8.00	≥ 7.00
CC(C)(C)NC(=O)N1CCC[C@H]1CNc1ccc2ncc(-c3ccccc3)n2n1 [(S)-N-(tert-butyl)-2-(((3-phenylimidazo[1,2-b]pyridazin-6-yl)amino)methyl)pyrrolidine-1-carboxamide]	≥ 8.00	≥ 7.00
COc1ccccc1-c1cnc2ccc(NC[C@@H]3CCCN3C(=O)NC3CCCC3)nn12 [(S)-N-cyclopentyl-2-(((3-(2-methoxyphenyl)imidazo[1,2-b]pyridazin-6-yl)amino)methyl)pyrrolidine-1-carboxamide]	≥ 8.00	≥ 6.00
CC(C)(C)CNC(=O)N1CCC[C@H]1CNc1ccc2ncc(-c3ccccc3)n2n1 [(S)-N-neopentyl-2-(((3-phenylimidazo[1,2-b]pyridazin-6-yl)amino)methyl)pyrrolidine-1-carboxamide]	≥ 8.00	≥ 7.00
CC(C)(C)OC(=O)N1CCC[C@H]1CNc1ccc2ncc(C(F)F)n2n1 [(S)-Tert-butyl 2-(((3-(difluoromethyl)imidazo[1,2-b]pyridazin-6-yl)amino)methyl)pyrrolidine-1-carboxylate]	≥ 8.00	≥ 6.00
COc1ccccc1-c1cnc2ccc(NC[C@@H]3CCCN3C(=O)OC3CCC3)nn12 [(S)-cyclobutyl 2-(((3-(2-methoxyphenyl)imidazo[1,2-b]pyridazin-6-yl)amino)methyl)pyrrolidine-1-carboxylate]	≥ 8.00	≥ 7.00
O=C(OC1CCC1)N1CCC[C@H]1CNc1ccc2ncc(-c3ccncc3)n2n1 [(S)-cyclobutyl 2-(((3-(pyridin-4-yl)imidazo[1,2-b]pyridazin-6-yl)amino)methyl)pyrrolidine-1-carboxylate]	≥ 8.00	≥ 8.00
O=C(OC1CCC1)N1CCC[C@H]1CNc1ccc2ncc(Br)n2n1 [(S)-cyclobutyl 2-(((3-bromoimidazo[1,2-b]pyridazin-6-yl)amino)methyl)pyrrolidine-1-carboxylate]	≥ 8.00	≥ 7.00
NCc1ccc(-c2cnc3ccc(NC[C@@H]4CCCN4C(=O)OC4CCCC4)nn23)cc1 [(S)-cyclopentyl 2-(((3-(4-(aminomethyl)phenyl)imidazo[1,2-b]pyridazin-6-yl)amino)methyl)pyrrolidine-1-carboxylate]	≥ 8.00	≥ 8.00
O=C(OC1CCCC1)N1CCC[C@H]1CNc1ccc2ncc(-c3ccncc3)n2n1 [(S)-cyclopentyl 2-(((3-(pyridin-4-yl)imidazo[1,2-b]pyridazin-6-yl)amino)methyl)pyrrolidine-1-carboxylate]	≥ 8.00	≥ 8.00
O=C(OC1CCCC1)N1CCC[C@H]1CNc1ccc2ncc(Br)n2n1 [(S)-cyclopentyl 2-(((3-bromoimidazo[1,2-b]pyridazin-6-yl)amino)methyl)pyrrolidine-1-carboxylate]	≥ 8.00	≥ 8.00
O=C(OC1CCCC1)N1CCC[C@H]1CNc1ccc2ncc(-c3ccccc3)n2n1 [(S)-cyclopentyl 2-(((3-phenylimidazo[1,2-b]pyridazin-6-yl)amino)methyl)pyrrolidine-1-carboxylate]	≥ 8.00	≥ 7.00
[2H]C([2H])([2H])Oc1ncccc1-c1cnc2ccc(N3CC[C@H](N(C)C(=O)OCC)C3)nn12 [(S)-ethyl (1-(3-(2-(trideuteromethoxy)pyridin-3-yl)imidazo[1,2-b]pyridazin-6-yl)pyrrolidin-3-yl)(methyl)carbamate]	≥ 8.00	≥ 7.00
CCOC(=O)N(C)[C@H]1CCN(c2ccc3ncc(-c4cc(C)cnc4OC)n3n2)C1 [(S)-ethyl (1-(3-(2-methoxy-5-methylpyridin-3-yl)imidazo[1,2-b]pyridazin-6-yl)pyrrolidin-3-yl)(methyl)carbamate]	≥ 8.00	≥ 7.00
CCOC(=O)N(C)[C@H]1CCN(c2ccc3ncc(-c4cccnc4OC)n3n2)C1 [(S)-ethyl (1-(3-(2-methoxypyridin-3-yl)imidazo[1,2-b]pyridazin-6-yl)pyrrolidin-3-yl)(methyl)carbamate]	≥ 8.00	≥ 7.00
CCOC(=O)N(C)[C@H]1CCN(c2ccc3ncc(-c4cc(F)ccc4OC)n3n2)C1 [(S)-ethyl (1-(3-(5-fluoro-2-methoxyphenyl)imidazo[1,2-b]pyridazin-6-yl)pyrrolidin-3-yl)(methyl)carbamate]	≥ 8.00	≥ 7.00
CCOC(=O)N(C)[C@H]1CCN(c2ccc3ncc(-c4cc(F)cnc4OC)n3n2)C1 [(S)-ethyl (1-(3-(5-fluoro-2-methoxypyridin-3-yl)imidazo[1,2-b]pyridazin-6-yl)pyrrolidin-3-yl)(methyl)carbamate]	≥ 8.00	≥ 7.00

Further lines, results first:

pIC50 (AAK1 [1])	pIC50 (AAK1 [2])	SMILES
≥ 8.00	≥ 6.00	CC(C)(C)CCN1C(=O)CC[C@H]1CNc1ccc2ncc(-c3ccccc3)n2n1 [(S)-1-(3,3-dimethylbutyl)-5-(((3-phenylimidazo[1,2-b]pyridazin-6-yl)amino)methyl)pyrrolidin-2-one]
≥ 8.00	≥ 7.00	CC(=O)c1cnc2ccc(N3CCN(C(=O)[C@@H](N)C(C)C)CC3)nn12 [(S)-1-(4-(3-acetylimidazo[1,2-b]pyridazin-6-yl)piperazin-1-yl)-2-amino-3-methylbutan-1-one]
≥ 8.00	≥ 6.00	CC1(OC(=O)N2CCC[C@H]2CNc2ccc3ncc(Br)n3n2)CCCC1 [(S)-1-methylcyclopentyl 2-(((3-bromoimidazo[1,2-b]pyridazin-6-yl)amino)methyl)pyrrolidine-1-carboxylate]
≥ 8.00	≥ 7.00	COc1ncccc1-c1cnc2ccc(N3CC[C@H](N(C)C(=O)OCC(F)(F)F)C3)nn12 [(S)-2,2,2-trifluoroethyl (1-(3-(2-methoxypyridin-3-yl)imidazo[1,2-b]pyridazin-6-yl)pyrrolidin-3-yl)(methyl)carbamate]
≥ 8.00	≥ 7.00	CC(C)(C)NC(=O)N1CCC[C@H]1CNc1ccc2ncc(Br)n2n1 [(S)-2-(((3-bromoimidazo[1,2-b]pyridazin-6-yl)amino)methyl)-N-(tert-butyl)pyrrolidine-1-carboxamide]
≥ 8.00	≥ 8.00	COc1ncccc1-c1cnc2ccc(N3CCN(C(=O)[C@@H](N)CC(C)C)CC3)nn12 [(S)-2-amino-1-(4-(3-(2-methoxypyridin-3-yl)imidazo[1,2-b]pyridazin-6-yl)piperazin-1-yl)-4-methylpentan-1-one]
≥ 8.00	≥ 8.00	O=C(CC(F)(F)F)N1CCC[C@H]1CNc1ccc2ncc(-c3ccccc3)n2n1 [(S)-3,3,3-trifluoro-1-(2-(((3-phenylimidazo[1,2-b]pyridazin-6-yl)amino)methyl)pyrrolidin-1-yl)propan-1-one]
≥ 8.00	≥ 7.00	CC(C)(C)CC(=O)N1CCC[C@H]1CNc1ccc2ncc(-c3ccncc3)n2n1 [(S)-3,3-dimethyl-1-(2-(((3-(pyridin-4-yl)imidazo[1,2-b]pyridazin-6-yl)amino)methyl)pyrrolidin-1-yl)butan-1-one]
≥ 8.00	≥ 7.00	CC(C)CC(=O)N1CCC[C@H]1CNc1ccc2ncc(-c3cccc(C#N)c3)n2n1 [(S)-3-(6-(((1-(3-methylbutanoyl)pyrrolidin-2-yl)methyl)amino)imidazo[1,2-b]pyridazin-3-yl)benzonitrile]
≥ 8.00	≥ 7.00	Cc1cc(-c2cnc3ccc(NC[C@@H]4CCCN4C(=O)CC(C)C)nn23)ccn1 [(S)-3-methyl-1-(2-(((3-(2-methylpyridin-4-yl)imidazo[1,2-b]pyridazin-6-yl)amino)methyl)pyrrolidin-1-yl)butan-1-one]
≥ 8.00	≥ 6.00	Cc1cccc(-c2cnc3ccc(NC[C@@H]4CCCN4C(=O)CC(C)C)nn23)c1 [(S)-3-methyl-1-(2-(((3-(m-tolyl)imidazo[1,2-b]pyridazin-6-yl)amino)methyl)pyrrolidin-1-yl)butan-1-one]
≥ 8.00	≥ 7.00	CC(C)CC(=O)N1CCC[C@H]1CNc1ccc2ncc(-c3ccccc3)n2n1 [(S)-3-methyl-1-(2-(((3-phenylimidazo[1,2-b]pyridazin-6-yl)amino)methyl)pyrrolidin-1-yl)butan-1-one]
≥ 8.00	≥ 8.00	CC(C)CC(=O)N1CCC[C@H]1CNc1ccc2ncc(-c3ccc(C#N)cc3)n2n1 [(S)-4-(6-(((1-(3-methylbutanoyl)pyrrolidin-2-yl)methyl)amino)imidazo[1,2-b]pyridazin-3-yl)benzonitrile]
≥ 8.00	≥ 7.00	CC(C)(C)CCN1C(=O)CC[C@H]1CNc1ccc2ncc(-c3ccc(CN)cc3)n2n1 [(S)-5-(((3-(4-(aminomethyl)phenyl)imidazo[1,2-b]pyridazin-6-yl)amino)methyl)-1-(3,3-dimethylbutyl)pyrrolidin-2-one]
≥ 8.00	≥ 7.00	CC(C)CCN1C(=O)CC[C@H]1CNc1ccc2ncc(-c3ccc(CN)cc3)n2n1 [(S)-5-(((3-(4-(aminomethyl)phenyl)imidazo[1,2-b]pyridazin-6-yl)amino)methyl)-1-isopentylpyrrolidin-2-one]
≥ 8.00	≥ 7.00	CC(C)(C)CCN1C(=O)CC[C@H]1CNc1ccc2ncc(Br)n2n1 [(S)-5-(((3-bromoimidazo[1,2-b]pyridazin-6-yl)amino)methyl)-1-(3,3-dimethylbutyl)pyrrolidin-2-one]
≥ 8.00	≥ 7.00	COc1ccccc1-c1cnc2ccc(NC[C@@H]3CCCN3C(=O)NC(C)(C)C)nn12 [(S)-N-(tert-butyl)-2-(((3-(2-methoxyphenyl)imidazo[1,2-b]pyridazin-6-yl)amino)methyl)pyrrolidine-1-carboxamide]
